Measured values reported in ChEMBL document CHEMBL1144313, “Synthesis of ring-substituted 4-aminoquinolines and evaluation of their antimalarial activities” (Bioorg Med Chem Lett, 2005).

What was measured:
Type in all cases: functional, organism-based
Plasmodium falciparum [1] = assay: Effective concentration for Plasmodium falciparum 3D7
Plasmodium falciparum [2] = assay: Effective concentration for Plasmodium falciparum W2
Plasmodium falciparum [3] = assay: Effective concentration against Plasmodium falciparum W2

Structure (SMILES) | EC50 (Plasmodium falciparum [1]; Plasmodium falciparum) | EC50 (Plasmodium falciparum [2]) | EC50 (Plasmodium falciparum [1]) | EC50 (Plasmodium falciparum [3])
CCN(CC)CCCC(C)Nc1ccnc2cc(Cl)c(C)cc12 (stereo unspecified) | 32 nM | 270 nM |  | 
CCN(CC)CCCNc1ccnc2ccc(OC(F)(F)F)cc12 | 82 nM | 102 nM |  | 
CCN(CC)CCCNc1ccnc2cc(C(F)(F)F)ccc12 | 33 nM | 62 nM |  | 
CCN(CC)CCCNc1ccnc2cc(Oc3ccccc3)ccc12 | 34 nM | 71 nM |  | 
CCN(CC)CCCC(C)Nc1c2ccc(Cl)cc2nc2ccc(OC)cc12 (stereo in doubt; form 2) [QUINACRINE] |  |  | 8 nM | 32 nM
CCN(CC)CCCNc1ccnc2cc(Cl)ccc12 | 2 nM | 23 nM |  | 
CCN(CC)CCCNc1ccnc2ccc(C(F)(F)F)cc12 | 90 nM | 125 nM |  | 
CCN(CC)CCCC(C)Nc1c2ccc(Cl)cc2nc2ccc(OC)cc12 (stereo in doubt; form 1) [QUINACRINE] | 5 nM |  |  | 8 nM
CCN(CC)CCCNc1ccnc2cc(Cl)c(C)cc12 | 9 nM | 50 nM |  | 
CCN(CC)CCCC(C)Nc1ccnc2ccc(OC(F)(F)F)cc12 (stereo unspecified) | 62 nM |  |  | 
CCN(CC)CCCC(C)Nc1ccnc2ccc(C(F)(F)F)cc12 (stereo unspecified) | 51 nM | 290 nM |  | 
